This is an account of results in patent US7829665B2 (priority 2005, dated 2010).

A word on the IC50: it is the concentration that inhibits the measured activity by half. As usually defined, the EC50 is the concentration that produces a half-maximal response.

Test [1] concerns the target T1, full-length NS3/NS4A-2 (HCV NS3 protease) (Hepatitis C virus genotype 1a, UniProt P27958).
T1 construct: Recombinant E. coli or Baculovirus full-length NS3 was diluted to 3.33 μM with assay buffer; made in house; host or cells: E. coli or baculovirus (BV) expression system
Kind of test: NS3-NS4 protease assay / NS3 inhibition assay (RETS1 substrate, fluorescence kinetic read). The note with it: recombinant E. coli or Baculovirus full-length NS3 with NS4A-2; read-out: NS3-NS4 IC50. Format: biochemical. An outline of the steps: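 Ki values come from IC50 fits corrected via Ki=IC50/(1+[S]/Km), with Km 2.03 μM for E. coli and 1.74 μM for baculovirus full-length NS3. Enzyme (2 or 3 nM NS3, respectively, complexed with NS4A-2) sat with compound, top concentration 50 microM, for 10 min at room temperature. Cleavage of RETS1 (8 μM working solution) was then followed by fluorescence (335/495 nm) over 30 min.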

Test [2] deals with HCV sub-genomic replicon in GS4.3 cells (HuH-7 hepatoma cells). Kind of test: Quantitation by ELISA of Neomycin phosphotransferase II (NPTII) in the HCV sub-genomic replicon, GS4.3. The format is cell-based, hepatitis C virus. The conditions noted are these: Hepatitis C virus, Huh-7; GS4.3 cells, 72 h incubation, NPTII ELISA; read-out: Replicon EC50. The essentials: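 Replicon-bearing HuH-7 (GS4.3) cells were exposed to compounds for 72 h in G418-free medium, top final concentration 10 μM, 1% DMSO. Lysates went to an NPTII ELISA read at 450 nm. Signal was normalised to DMSO-treated wells and EC50 was derived by four-parameter curve fitting.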
(In an ELISA, binding on a coated surface is turned into a signal by an enzyme label.)

Some results are limits rather than exact numbers.

T1 sequence (P27958 1027-1657): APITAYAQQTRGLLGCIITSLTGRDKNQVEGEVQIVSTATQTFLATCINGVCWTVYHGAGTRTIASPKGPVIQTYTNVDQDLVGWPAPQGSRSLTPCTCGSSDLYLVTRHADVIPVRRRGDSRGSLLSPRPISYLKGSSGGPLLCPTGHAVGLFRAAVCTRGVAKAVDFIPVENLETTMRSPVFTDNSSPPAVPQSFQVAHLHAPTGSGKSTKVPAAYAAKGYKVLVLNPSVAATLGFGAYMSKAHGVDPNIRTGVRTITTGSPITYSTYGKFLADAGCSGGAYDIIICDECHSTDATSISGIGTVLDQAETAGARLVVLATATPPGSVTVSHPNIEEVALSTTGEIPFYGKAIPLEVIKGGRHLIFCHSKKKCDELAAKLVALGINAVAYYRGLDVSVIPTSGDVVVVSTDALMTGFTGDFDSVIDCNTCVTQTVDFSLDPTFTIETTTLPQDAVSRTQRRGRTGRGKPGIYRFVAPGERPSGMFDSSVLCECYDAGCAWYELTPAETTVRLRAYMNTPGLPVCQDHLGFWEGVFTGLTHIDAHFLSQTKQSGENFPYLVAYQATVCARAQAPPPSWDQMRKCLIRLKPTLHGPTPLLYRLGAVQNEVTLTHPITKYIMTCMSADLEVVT

Regarding `CN(C)C(=O)NC(=O)[C@@]12C[C@H]1/C=C\CCCCC[C@H](NC(=O)OC(C)(C)C)C(=O)N1C[C@H](OC(=O)N3Cc4cccc(F)c4C3)C[C@H]1C(=O)N2` [Compound 235], in test [1], the 50% inhibitory concentration (IC50) was under 100 nM. Besides, the EC50 in test [2] is under 100 nM.

As to `CN(C)C(=S)NC(=O)[C@@]12C[C@H]1/C=C\CCCCC[C@H](NC(=O)OC(C)(C)C)C(=O)N1C[C@H](OC(=O)N3Cc4cccc(F)c4C3)C[C@H]1C(=O)N2` [Compound 236], the IC50 in test [1] is under 100 nM. For the same molecule, the EC50 in test [2] is under 100 nM.

Turning to `O=C1N[C@]2(C(=O)O)C[C@H]2/C=C\CCCCC[C@H](Nc2c(N3CCC3)c(=O)c2=O)C(=O)N2C[C@H](OC(=O)N3Cc4cccc(F)c4C3)C[C@@H]12` [Compound 238], the IC50 in test [1] is under 100 nM. Also, the concentration giving a half-maximal response (EC50) in test [2] is under 10000 nM.

Consider `CC(C)(C)NC(=S)N[C@H]1CCCCC/C=C\[C@@H]2C[C@@]2(C(=O)NS(=O)(=O)C2CC2)NC(=O)[C@@H]2C[C@@H](OC(=O)N3Cc4cccc(F)c4C3)CN2C1=O` [Compound 239], for which, in test [1], the IC50 was under 100 nM. Further, the EC50 in test [2] was under 100 nM.

As to `O=C1N[C@]2(C(=O)NS(=O)(=O)C3CC3)C[C@H]2/C=C\CCCCC[C@H](NC(=S)NC2CCCC2)C(=O)N2C[C@H](OC(=O)N3Cc4cccc(F)c4C3)C[C@@H]12` [Compound 240], the IC50 in test [1] was under 100 nM. Besides, in test [2], the EC50 is under 1000 nM.

Take `O=C1N[C@]2(C(=O)NS(=O)(=O)C3CC3)C[C@H]2/C=C\CCCCC[C@H](Nc2c(N3CCC3)c(=O)c2=O)C(=O)N2C[C@H](OC(=O)N3Cc4cccc(Cl)c4C3)C[C@@H]12` [Compound 241, (2R,6S,13aS,14aR,16aS,Z)-6-(2-(azetidin-1-yl)-3,4-dioxocyclobut-1-enylamino)-14a-(cyclopropylsulfonylcarbamoyl)-5,16-dioxo-1,2,3,5,6,7,8,9,10,11,13a,14,14a,15,16,16a-hexadecahydrocyclopropa[e]pyrrolo[1,2-a][1,4]diazacyclopentadecin-2-yl 4-chloroisoindoline-2-carboxylate]: the IC50 in test [1] was under 100 nM. In addition, in test [2], the EC50 was under 1000 nM.

Take `O=C1N[C@]2(C(=O)NS(=O)(=O)C3CC3)C[C@H]2/C=C\CCCCC[C@H](Nc2c(N3CCC3)c(=O)c2=O)C(=O)N2C[C@H](OC(=O)N3CCc4ccccc4C3)C[C@@H]12` [Compound 242]: the IC50 in test [1] is under 100 nM. In addition, the EC50 in test [2] was under 10000 nM.

As to `O=C1N[C@]2(C(=O)NS(=O)(=O)C3CC3)C[C@H]2/C=C\CCCCC[C@H](NC(=O)N2CCCC2)C(=O)N2C[C@H](OC(=O)N3Cc4cccc(F)c4C3)C[C@@H]12` [Compound 243], the IC50 in test [1] is under 100 nM. Also, the EC50 in test [2] is under 100 nM.

`O=C1N[C@]2(C(=O)NS(=O)(=O)C3CC3)C[C@H]2/C=C\CCCCC[C@H](NC(=S)N2CCCC2)C(=O)N2C[C@H](OC(=O)N3Cc4cccc(F)c4C3)C[C@@H]12` [Compound 244]: in test [1], the IC50 is under 100 nM. For the same molecule, the EC50 in test [2] was under 100 nM.

As for `CN(Cc1ccccc1)C(=O)O[C@@H]1C[C@H]2C(=O)N[C@]3(C(=O)NS(=O)(=O)C4CC4)C[C@H]3/C=C\CCCCC[C@H](NC(=O)OC(C)(C)C)C(=O)N2C1` [Compound 245], the IC50 in test [1] was under 100 nM. In addition, the concentration giving a half-maximal response (EC50) in test [2] is under 1000 nM.

Regarding `CC(C)(O)C(=O)N[C@H]1CCCCC/C=C\[C@@H]2C[C@@]2(C(=O)NS(=O)(=O)C2CC2)NC(=O)[C@@H]2C[C@@H](OC(=O)N3Cc4cccc(F)c4C3)CN2C1=O` [Compound 246], the IC50 in test [1] was under 100 nM. For the same molecule, the EC50 in test [2] was under 1000 nM.

For the molecule `O=C1N[C@]2(C(=O)NS(=O)(=O)C3CC3)C[C@H]2/C=C\CCCCC[C@H](NC(=O)C2(O)CC2)C(=O)N2C[C@H](OC(=O)N3Cc4cccc(F)c4C3)C[C@@H]12` [Compound 249], the concentration for half-maximal inhibition (IC50) in test [1] is under 100 nM. The EC50 in test [2] was under 1000 nM.

For the molecule `CC(C)C(O)C(=O)N[C@H]1CCCCC/C=C\[C@@H]2C[C@@]2(C(=O)NS(=O)(=O)C2CC2)NC(=O)[C@@H]2C[C@@H](OC(=O)N3Cc4cccc(F)c4C3)CN2C1=O` (some centres unmarked) [Compound 250], in test [1], the IC50 is under 100 nM. Further, the EC50 in test [2] was under 1000 nM.
